Where “and” joins values, the source holds several entries; their conditions need not be identical. Equal entries are not always repeated.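 Cultured in 96-well plates, cells were exposed to test compound for 48 hours across five concentrations. GI50 is the concentration that inhibits growth by half. TGI: concentration producing complete growth inhibition.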
How the values were obtained:
Assay in all cases: NCI anticancer screen, dose series, 48 h
HT29 colon = system: HT29 colon
SF-539 CNS = system: SF-539 CNS
U251 CNS = system: U251 CNS
LXFL 529 NSCLC = system: LXFL 529 NSCLC
SF-295 CNS = system: SF-295 CNS
RXF 393 renal = system: RXF 393 renal
SK-MEL-28 melanoma = system: SK-MEL-28 melanoma
M19-MEL melanoma = system: M19-MEL melanoma
SR leukemia = system: SR leukemia
T-47D breast = system: T-47D breast

SMILES | TGI (HT29 colon) | TGI (SF-539 CNS) | TGI (U251 CNS) | TGI (LXFL 529 NSCLC) | TGI (SF-295 CNS) | TGI (RXF 393 renal) | TGI (SK-MEL-28 melanoma) | TGI (M19-MEL melanoma) | TGI (SR leukemia) | TGI (T-47D breast) | GI50 (HT29 colon) | GI50 (SR leukemia) | GI50 (SF-539 CNS) | GI50 (SF-295 CNS) | GI50 (RXF 393 renal) | GI50 (SK-MEL-28 melanoma) | GI50 (U251 CNS) | GI50 (LXFL 529 NSCLC) | GI50 (M19-MEL melanoma) | GI50 (T-47D breast)
O=C1NC(=O)c2c1n(Cc1ccccc1)c(=O)n2Cc1ccccc1 | > 100 µM | > 100 µM | > 100 µM | > 100 µM | > 100 µM | > 100 µM | > 100 µM | > 100 µM | – | – | – | – | – | – | – | – | – | – | – | –
CC1=N/C(=C\c2ccc(/C=C3/N=C(C)OC3=O)cc2)C(=O)O1 | > 100 µM | > 100 µM | > 100 µM | > 100 µM | – | > 100 µM | > 100 µM | > 100 µM | – | – | – | – | – | – | – | – | – | – | – | –
CCc1cccc(C)c1NC(=O)CCc1nc(=S)[nH][nH]1 | > 100 µM | > 100 µM | > 100 µM | > 100 µM | > 100 µM | > 100 µM | > 100 µM | > 100 µM | > 100 µM | – | – | – | – | – | – | – | – | – | – | –
COC1N(C2CC(O)C(CO)O2)C(=O)NC(=O)C1(F)Br (stereo unspecified) | 50 µM and > 100 µM | 50 µM | 50 µM and > 100 µM | 50 µM | 50 µM and > 100 µM | 50 µM and > 100 µM | 50 µM and > 100 µM | – | 50 µM and > 100 µM | > 100 µM | 14.9 µM | 25.1 µM | 6.8 µM | 21.9 µM | 37.2 µM | 30 µM | – | – | – | –
N#C/C(=C\c1cc(OCc2ccccc2)c(OCc2ccccc2)cn1)C(N)=O | > 100 µM | > 100 µM | > 100 µM | > 100 µM | > 100 µM | > 100 µM | > 100 µM | > 100 µM | – | – | – | – | – | – | – | – | – | – | – | –
O=C1[C@@H]2C(c3c(Cl)cccc3Cl)=NO[C@@H]2C(=O)N1c1ccc(Cc2ccc(N3C(=O)[C@H]4C(c5c(Cl)cccc5Cl)=NO[C@H]4C3=O)cc2)cc1 | > 100 µM | > 100 µM | > 100 µM | > 100 µM | > 100 µM | > 100 µM | > 100 µM | > 100 µM | – | – | – | – | – | – | – | – | – | – | – | –
Cc1nc(N)nc(CCC(=O)Nc2cccc(C(F)(F)F)c2)c1-c1ccc(Cl)cc1 | > 100 µM | > 100 µM | > 100 µM | > 100 µM | > 100 µM | > 100 µM | > 100 µM | > 100 µM | 56.8 µM | – | – | – | – | – | – | – | – | – | – | –
CCc1ccccc1NC(=O)c1cccc([N+](=O)[O-])c1O | > 100 µM | > 100 µM | > 100 µM | > 100 µM | 32.2 µM | 45.1 µM | > 100 µM | 82.4 µM | – | – | – | – | – | – | – | – | – | – | – | –
COC(=O)C1C(C(=O)OC)C2C(=O)C3C(C(=O)OC)C(C(=O)OC)C3C(=O)C12 (stereo unspecified) | > 100 µM | > 100 µM | > 100 µM | > 100 µM | > 100 µM | > 100 µM | > 100 µM | > 100 µM | > 100 µM | – | – | – | – | – | – | – | – | – | – | –
N#CC(C(=O)C(=O)Nc1c(Cl)cccc1Cl)c1ccccc1 (stereo unspecified) | > 100 µM | > 100 µM | > 100 µM | > 100 µM | – | – | > 100 µM | > 100 µM | – | – | > 100 µM | – | > 100 µM | > 100 µM | – | > 100 µM | > 100 µM | > 100 µM | > 100 µM | –
COc1cc(Nc2cnc3ccc(C(F)(F)F)cc3n2)cc(OC)c1OC | > 100 µM | > 100 µM | > 100 µM | > 100 µM | 91.2 µM | > 100 µM | > 100 µM | > 100 µM | > 100 µM | – | – | – | – | – | – | – | – | – | – | –
O=[N+]([O-])c1ccccc1C1SCc2nc3ccccc3n21 (stereo unspecified) | > 100 µM | > 100 µM | > 100 µM | > 100 µM | > 100 µM | > 100 µM | > 100 µM | – | > 100 µM | – | – | – | – | – | – | – | – | – | – | –
Cc1ccc2c(c1)CN1c3ccc(C)cc3CN2C1c1ccccc1O | > 100 µM | > 100 µM | > 100 µM | > 100 µM | > 100 µM | 61.2 µM | > 100 µM | > 100 µM | > 100 µM | – | – | – | – | – | – | – | – | – | – | –
COC(=O)/C=C(/C(=O)OC)C1(C)c2cc(C(=O)OC)c(C(=O)OC)c(N)c2C(=N)N1c1ccccc1 (stereo unspecified) | 31.7 µM | 48.9 µM | 48.9 µM | 38.6 µM | 40.2 µM | 36.1 µM | 36.5 µM | 41.9 µM | 58.5 µM | – | – | – | – | – | – | – | – | – | – | –
OCc1cc2c(cn1)[nH]c1ccc(NCc3ccccc3)cc12 | 32.2 µM | > 100 µM | > 100 µM | 58.8 µM | 59.9 µM | 78.5 µM | 38.4 µM | 60.3 µM | – | – | – | – | – | – | – | – | – | – | – | –
O=C(NC1C(=O)NNC1c1cccc([N+](=O)[O-])c1)c1ccccc1 (stereo unspecified) | > 100 µM | – | > 100 µM | > 100 µM | > 100 µM | > 100 µM | > 100 µM | > 100 µM | – | – | – | – | – | – | – | – | – | – | – | –
O=C(NCCNCCO)c1ccc2c(c1)oc1cc3ccccc3c(=O)n12 | > 50 µM | 33.2 µM | 42.6 µM | – | > 50 µM | > 50 µM | > 50 µM | – | > 50 µM | > 50 µM | 29.4 µM | 24.8 µM | 16.2 µM | > 50 µM | 14.2 µM | > 50 µM | 14.7 µM | – | – | 24.7 µM
O=C1C=C[C@H](O)[C@@]2(CO)O[C@@H]12 | 19.7 µM | 25.6 µM | 23.2 µM | – | 38.5 µM | 12 µM | 25.7 µM | – | > 100 µM | 26.3 µM | 6.32 µM | 4.64 µM | 11.6 µM | 8.26 µM | 4.96 µM | 12.8 µM | 9.26 µM | – | – | 8.16 µM

Reference: PubChem BioAssay (NCI)
